From patent US10947225B2, “Phosphotidylinositol 3-kinase inhibitors” (Emory University, priority 2016, dated 2021)
Like-named read-outs stand apart in the source and are kept apart here.

How the values were obtained:
Assay type in all cases: biochemical
PI3Kα = biological target: T1, PI3Kα (Homo sapiens, UniProt P42336); test: Ki for PI3Kα (Promega ADP-Glo Lipid Kinase System)
T1 construct: purchased Promega V1721
Text: The Promega V1721 ADP-Glo Lipid Kinase System was used as per the Promega technical manual. The analysis was done in triplicate on three 96-well plates. The plates were read and the data were processed with GraphPad Prism 7.0.

p110beta = p110beta (Homo sapiens, UniProt P42338); test: PI3K kinase assay (ADP-Glo), p110beta; conditions: final ATP 25 μM
Chain of p110beta (P42338 whole entry): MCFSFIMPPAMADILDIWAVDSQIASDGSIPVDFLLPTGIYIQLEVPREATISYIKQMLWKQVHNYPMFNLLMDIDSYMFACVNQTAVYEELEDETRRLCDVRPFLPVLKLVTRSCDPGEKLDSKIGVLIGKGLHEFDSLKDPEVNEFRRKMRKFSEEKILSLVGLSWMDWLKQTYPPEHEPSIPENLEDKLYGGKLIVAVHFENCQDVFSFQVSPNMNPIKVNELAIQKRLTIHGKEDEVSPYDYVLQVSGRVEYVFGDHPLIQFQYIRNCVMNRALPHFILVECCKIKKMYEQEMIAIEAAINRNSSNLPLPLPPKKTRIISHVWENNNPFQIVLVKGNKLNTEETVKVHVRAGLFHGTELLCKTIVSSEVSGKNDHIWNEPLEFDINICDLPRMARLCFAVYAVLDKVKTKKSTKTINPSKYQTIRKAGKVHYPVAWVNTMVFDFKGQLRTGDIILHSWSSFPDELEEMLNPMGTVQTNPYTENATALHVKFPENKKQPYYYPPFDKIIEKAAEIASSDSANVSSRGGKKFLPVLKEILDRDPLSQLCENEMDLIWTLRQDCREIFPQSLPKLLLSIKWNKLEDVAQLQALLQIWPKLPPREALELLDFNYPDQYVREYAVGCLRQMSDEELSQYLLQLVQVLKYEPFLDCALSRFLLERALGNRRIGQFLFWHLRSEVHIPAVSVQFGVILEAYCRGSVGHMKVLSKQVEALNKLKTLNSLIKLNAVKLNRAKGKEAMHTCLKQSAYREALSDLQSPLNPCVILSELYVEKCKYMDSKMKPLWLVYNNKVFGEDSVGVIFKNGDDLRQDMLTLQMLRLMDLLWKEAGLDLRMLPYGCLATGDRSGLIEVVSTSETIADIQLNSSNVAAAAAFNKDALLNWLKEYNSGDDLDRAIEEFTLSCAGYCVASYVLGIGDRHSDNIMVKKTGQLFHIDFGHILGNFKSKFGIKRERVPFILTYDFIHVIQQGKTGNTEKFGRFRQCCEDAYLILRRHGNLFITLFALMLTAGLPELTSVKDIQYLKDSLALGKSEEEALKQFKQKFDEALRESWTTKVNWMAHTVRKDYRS
Chain of p110beta (P27986 whole entry partner): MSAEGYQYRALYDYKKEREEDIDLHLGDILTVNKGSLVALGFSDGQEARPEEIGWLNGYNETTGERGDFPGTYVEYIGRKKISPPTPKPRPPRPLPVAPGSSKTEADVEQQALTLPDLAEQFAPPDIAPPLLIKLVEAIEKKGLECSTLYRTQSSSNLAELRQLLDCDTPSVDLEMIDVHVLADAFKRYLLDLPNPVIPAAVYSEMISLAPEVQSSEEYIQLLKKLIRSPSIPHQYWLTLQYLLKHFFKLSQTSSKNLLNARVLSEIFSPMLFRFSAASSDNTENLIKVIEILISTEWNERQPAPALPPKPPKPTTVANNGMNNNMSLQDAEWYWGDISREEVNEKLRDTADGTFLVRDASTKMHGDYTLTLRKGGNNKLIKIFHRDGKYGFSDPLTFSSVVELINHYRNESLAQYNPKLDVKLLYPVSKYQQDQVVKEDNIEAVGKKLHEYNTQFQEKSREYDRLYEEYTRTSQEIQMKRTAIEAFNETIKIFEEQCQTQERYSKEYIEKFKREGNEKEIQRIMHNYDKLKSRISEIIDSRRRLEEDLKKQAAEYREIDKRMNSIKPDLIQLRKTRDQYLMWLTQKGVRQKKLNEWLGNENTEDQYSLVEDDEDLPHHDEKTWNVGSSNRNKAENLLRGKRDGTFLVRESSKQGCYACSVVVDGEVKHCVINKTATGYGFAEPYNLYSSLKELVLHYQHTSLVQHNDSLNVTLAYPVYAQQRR
Method: (§1) Summary of PI3K Kinase Assay
(§2) 1. Prepare 1.25× enzyme/substrate: mix equal volume of 2.5× enzyme (in 2.5× reaction buffer) and 2.5× substrate (final 0.05 mg/ml) (in 2.5× lipid dilution buffer);
(§3) 2. Add 4 μl of 1.25× enzyme/substrate mixture to 384-well low volume white plate;
(§4) 3. Add 0.1 μl of increasing concentrations of compound diluted in DMSO;
(§5) 4. Incubate at r.t. for 30 min;
(§6) 5. Dispense 1 μl of 250 μM ATP diluted in ddH2O. The final ATP was 25 μM;
(§7) 6. Incubate at r.t. for 1 h;
(§8) 7. Add 5 μl of ADP-Glo with 10 mM MgCl2;
(§9) 8. Incubate at r.t. for 40 min;
(§10) 9. Add 10 μl of kinase detection buffer;
(§11) 10. Incubated at r.t. for 30 min; and
(§12) 11. Read luminescence signal using Envision multilabel plate reader.
(§13) The effect of compound on kinase activity is expressed as % of control and calculated as the following equation: % of Control=(Lum compound−Lum blank)/(Lum vehicle control−Lum blank)×100 • * blank is the substrate only without enzyme, which is the background signal control.
(§14) The experiment was repeated twice on different days at triplicates per sample.

p110delta = p110delta (Homo sapiens, UniProt O00329); test: PI3K kinase assay (ADP-Glo), p110delta; conditions: final ATP 25 μM
Chain of p110delta (O00329 whole entry): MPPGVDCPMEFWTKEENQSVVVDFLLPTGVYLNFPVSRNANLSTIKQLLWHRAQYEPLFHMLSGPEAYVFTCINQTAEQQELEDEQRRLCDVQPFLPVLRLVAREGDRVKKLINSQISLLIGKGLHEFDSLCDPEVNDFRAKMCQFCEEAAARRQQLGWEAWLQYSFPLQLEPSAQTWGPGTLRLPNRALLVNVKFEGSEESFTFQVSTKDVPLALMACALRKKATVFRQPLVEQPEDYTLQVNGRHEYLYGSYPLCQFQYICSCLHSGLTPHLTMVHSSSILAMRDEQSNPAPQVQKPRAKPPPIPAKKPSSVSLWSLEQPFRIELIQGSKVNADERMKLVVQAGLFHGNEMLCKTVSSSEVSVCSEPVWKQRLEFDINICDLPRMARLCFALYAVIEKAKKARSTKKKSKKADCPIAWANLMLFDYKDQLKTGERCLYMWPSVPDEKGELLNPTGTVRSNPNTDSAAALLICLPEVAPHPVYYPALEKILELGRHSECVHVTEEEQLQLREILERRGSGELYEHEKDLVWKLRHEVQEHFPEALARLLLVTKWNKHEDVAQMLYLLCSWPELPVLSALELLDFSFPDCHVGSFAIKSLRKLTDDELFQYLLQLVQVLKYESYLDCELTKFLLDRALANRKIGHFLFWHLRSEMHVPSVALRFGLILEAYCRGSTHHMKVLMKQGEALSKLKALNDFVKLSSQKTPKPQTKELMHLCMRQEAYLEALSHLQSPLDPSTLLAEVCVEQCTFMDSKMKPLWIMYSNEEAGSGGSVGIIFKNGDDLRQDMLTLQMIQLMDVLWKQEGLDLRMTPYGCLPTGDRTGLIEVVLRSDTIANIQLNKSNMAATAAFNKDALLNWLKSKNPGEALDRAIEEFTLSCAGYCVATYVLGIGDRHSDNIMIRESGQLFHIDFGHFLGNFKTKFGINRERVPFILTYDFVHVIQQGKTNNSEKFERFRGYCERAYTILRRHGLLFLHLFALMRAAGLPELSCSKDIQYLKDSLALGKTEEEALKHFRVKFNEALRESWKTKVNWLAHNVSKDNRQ
Chain of p110delta (P27986 whole entry partner): as the sequence (P27986 whole entry partner) above
Method: as §1, §2, §3, §4, §5, §6, §7, §8, §9, §10, §11, §12, §13, §14

p120gamma = p120gamma (Homo sapiens, UniProt P48736); test: PI3K kinase assay (ADP-Glo), p120gamma; conditions: final ATP 25 μM
Method: as §1, §2, §3, §4, §5, §6, §7, §8, §9, §10, §11, §12, §13, §14

p110alpha = p110alpha (Homo sapiens, UniProt P42336); test: PI3K kinase assay (ADP-Glo), p110alpha; conditions: final ATP 25 μM
Chain of p110alpha (P42336 whole entry): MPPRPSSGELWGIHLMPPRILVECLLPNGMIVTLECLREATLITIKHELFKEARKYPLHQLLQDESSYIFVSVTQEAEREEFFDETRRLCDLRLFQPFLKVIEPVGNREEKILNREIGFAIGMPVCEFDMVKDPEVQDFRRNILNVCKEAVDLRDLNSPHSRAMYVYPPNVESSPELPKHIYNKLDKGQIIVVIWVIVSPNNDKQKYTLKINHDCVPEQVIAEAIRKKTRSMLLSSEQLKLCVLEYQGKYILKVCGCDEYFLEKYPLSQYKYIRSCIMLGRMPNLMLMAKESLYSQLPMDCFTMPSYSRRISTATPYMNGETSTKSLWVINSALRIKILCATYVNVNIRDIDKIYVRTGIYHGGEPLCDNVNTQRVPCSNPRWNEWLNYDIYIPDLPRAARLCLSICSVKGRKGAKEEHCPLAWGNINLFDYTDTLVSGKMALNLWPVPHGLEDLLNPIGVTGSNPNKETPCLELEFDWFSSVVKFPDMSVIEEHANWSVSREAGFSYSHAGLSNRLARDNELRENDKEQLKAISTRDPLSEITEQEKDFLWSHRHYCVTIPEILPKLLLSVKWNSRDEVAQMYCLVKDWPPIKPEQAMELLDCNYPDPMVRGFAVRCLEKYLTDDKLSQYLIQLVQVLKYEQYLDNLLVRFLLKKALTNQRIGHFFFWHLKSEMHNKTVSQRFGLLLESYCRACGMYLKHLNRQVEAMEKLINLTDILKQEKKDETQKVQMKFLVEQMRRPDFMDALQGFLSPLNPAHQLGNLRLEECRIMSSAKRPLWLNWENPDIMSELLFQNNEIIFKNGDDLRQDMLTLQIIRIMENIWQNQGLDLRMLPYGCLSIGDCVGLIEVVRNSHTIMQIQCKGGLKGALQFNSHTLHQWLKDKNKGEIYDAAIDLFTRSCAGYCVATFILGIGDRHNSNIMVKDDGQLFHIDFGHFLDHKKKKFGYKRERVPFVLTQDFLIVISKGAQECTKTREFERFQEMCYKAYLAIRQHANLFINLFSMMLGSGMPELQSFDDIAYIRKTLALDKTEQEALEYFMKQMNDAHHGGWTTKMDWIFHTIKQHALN
Chain of p110alpha (P27986 whole entry partner): as the sequence (P27986 whole entry partner) above
Method: as §1
Enzyme optimization: After optimization, the following concentrations of Enzyme are used to compound testing: P110alpha 1 μg/ml,
as §2, §3, §4, §5, §6, §7, §8, §9, §10, §11, §12, §13, §14

[1] = Exp. 1, read-out: IC50 p110beta Exp. 1
[2] = Exp. 2, read-out: IC50 p110beta Exp. 2
[3] = Exp. 1, read-out: IC50 p110delta Exp. 1
[4] = Exp. 2, read-out: IC50 p110delta Exp. 2
[5] = Exp. 1, read-out: IC50 p120gamma Exp. 1
[6] = Exp. 2, read-out: IC50 p120gamma Exp. 2
[7] = Exp. 1, read-out: IC50 p110alpha Exp. 1
[8] = Exp. 2, read-out: IC50 p110alpha Exp. 2

T1 sequence (P42336 whole entry): as the sequence (P42336 whole entry) above
T1 sequence (P27986 whole entry partner): as the sequence (P27986 whole entry partner) above

SMILES: CCc1nc(-c2cnc3ccc(-c4cncc(NS(=O)(=O)c5ccccc5)c4)cn23)no1
- Ki (PI3Kα): 43 nM

SMILES: Nc1ccc(-c2cccc3c(=O)cc(N4CCOCC4)oc23)cc1 [PI 828, reference compound]
- IC50 (p110beta; [1]): 244 nM
- IC50 (p110beta; [2]): 242 nM
- IC50 (p110delta; [3]): 308 nM
- IC50 (p110delta; [4]): 203 nM
- IC50 (p120gamma; [5]): 1920 nM
- IC50 (p120gamma; [6]): 2140 nM
- IC50 (p110alpha; [7]): 351 nM
- IC50 (p110alpha; [8]): 349 nM

SMILES: COc1ncc(-c2cnc3ccc(-c4cncc(NS(=O)(=O)c5ccccc5)c4)cn23)cn1 [TK2-67p3-36 (6b), N-(5-(3-(2-methoxypyrimidin-5-yl)imidazo[1,2-a]pyridin-6-yl)pyridin-3-yl)benzenesulfonamide]
- IC50 (p110beta; [1]): 167 nM
- IC50 (p110beta; [2]): 187 nM
- IC50 (p110delta; [3]): 33.5 nM
- IC50 (p110delta; [4]): 27.7 nM
- IC50 (p120gamma; [5]): 14.9 nM
- IC50 (p120gamma; [6]): 27.7 nM
- IC50 (p110alpha; [7]): 11.7 nM
- IC50 (p110alpha; [8]): 12.7 nM

SMILES: CN(C)c1ncc(-c2cnc3ccc(-c4cncc(NS(=O)(=O)c5ccccc5)c4)cn23)cn1 [TK2-71pZD2-86 (6a), N-(5-(3-(2-(dimethylamino)pyrimidin-5-yl)imidazo[1,2-a]pyridin-6-yl)pyridin-3-yl)benzenesulfonamide]
- IC50 (p110beta; [1]): 190 nM
- IC50 (p110beta; [2]): 184 nM
- IC50 (p110delta; [3]): 33.5 nM
- IC50 (p110delta; [4]): 34.2 nM
- IC50 (p120gamma; [5]): 18.6 nM
- IC50 (p120gamma; [6]): 34.2 nM
- IC50 (p110alpha; [7]): 20.9 nM
- IC50 (p110alpha; [8]): 33.7 nM

SMILES: O=S(=O)(Nc1cncc(-c2ccc3ncc(-c4ncccn4)n3c2)c1)c1ccccc1 [TK2-94p3-47 (6d), N-(5-(3-(pyrimidin-2-yl)imidazo[1,2-a]pyridin-6-yl)pyridin-3-yl)benzenesulfonamide]
- IC50 (p110beta; [1]): 27.6 nM
- IC50 (p110beta; [2]): 44.9 nM
- IC50 (p110delta; [3]): 10.8 nM
- IC50 (p110delta; [4]): 8.5 nM
- IC50 (p120gamma; [5]): 7.5 nM
- IC50 (p120gamma; [6]): 8.5 nM
- IC50 (p110alpha; [7]): 8.9 nM
- IC50 (p110alpha; [8]): 11.5 nM

SMILES: O=S(=O)(Nc1cncc(-c2ccc3ncc(-c4cnc5ccnn5c4)n3c2)c1)c1ccccc1 [TK2-130p3-37 (6c), N-(5-(3-(pyrazolo[1,5-a]pyrimidin-6-yl)imidazo[1,2-a]pyridin-6-yl)pyridin-3-yl)benzenesulfonamide]
- IC50 (p110beta; [1]): 419 nM
- IC50 (p110beta; [2]): 479 nM
- IC50 (p110delta; [3]): 34.1 nM
- IC50 (p110delta; [4]): 31 nM
- IC50 (p120gamma; [5]): 50.2 nM
- IC50 (p120gamma; [6]): 31 nM
- IC50 (p110alpha; [7]): 51 nM
- IC50 (p110alpha; [8]): 61.3 nM

SMILES: CN(C)c1ncc(-c2cnc3ccc(-c4cncc(NS(=O)(=O)c5ccccc5)c4)cn23)cn1 [drawing 16]
- Ki (PI3Kα): 244 nM

SMILES: COc1ncc(-c2cnc3ccc(-c4cncc(NS(=O)(=O)c5ccccc5)c4)cn23)cn1 [drawing 17]
- Ki (PI3Kα): 70 nM

SMILES: O=S(=O)(Nc1cncc(-c2ccc3ncc(-c4cnc5ccnn5c4)n3c2)c1)c1ccccc1 [drawing 18]
- Ki (PI3Kα): 329 nM

SMILES: O=S(=O)(Nc1cncc(-c2ccc3ncc(-c4ncccn4)n3c2)c1)c1ccccc1 [drawing 19]
- Ki (PI3Kα): 100 nM
